Source: patent US20220378706A1, “PHARMACEUTICAL COMPOSITION COMPRISING PDE9 INHIBITOR” (Eisai R&D Management Co., Ltd., priority 2017, published 2022)
Where two headings read alike, the source gives them in different places.

Assay: Single dose clinical study: plasma Compound A pharmacokinetics
Format: in vivo, human
Conditions: human, plasma, po, plasma
Protocol: This was a single center, single dose, randomized, double blind, placebo controlled study in healthy subjects. It consisted of 4 parts: Parts A, B, C, and D. Each of the four study parts had 2 phases: Prerandomization Phase and Randomization Phase. The Prerandomization Phase lasted up to 30 days and consisted of a Screening Period and a Baseline Period, during which each subject's study eligibility was determined and baseline assessments were performed.
In Part A, there were 8 sequential cohorts of healthy adult subjects (18-50 years of age). Subjects were randomly assigned to Compound A or placebo in a ratio of 6:2, respectively. Subjects in the Compound A cohorts were treated with single ascending doses of 10, 25, 50, 100, 200, 400, 800, or 1200 mg.
In Part B, there were 4 cohorts of healthy adult subjects (18-50 years of age). There were 8 subjects in Cohort 1, with 6 subjects randomly assigned to receive single doses of Compound A (400 mg) and 2 subjects randomly assigned to receive placebo. There were 7 subjects in Cohort 2 and Cohort 3, each with 6 subjects randomly assigned to receive single doses of Compound A (100 and 200 mg, respectively) and 1 subject randomly assigned to receive placebo. The dose of 100 mg selected in Cohort 2 was based on preliminary analysis of Cohort 1 data; this dose was predicted from PK/PD modeling to achieve a sustained CSF cGMP increase from baseline of approximately 200% when administered to steady state, and thereby provided a potentially therapeutic dose for further evaluation in future studies. There were 7 subjects in Cohort 4, with 6 subjects randomly assigned to receive a single dose of Compound A (50 mg [n=3] or 75 mg [n=3]) and 1 subject randomly assigned to receive placebo. The doses for Cohorts 3 and 4 were selected based on PK/PD modeling of the data in Cohorts 1 and 2.
Subjects in Cohort 2 who had received Compound A 100 mg or placebo under fasted conditions (1st Treatment Period) also participated in an evaluation of food effect on the PK of Compound A (2nd Treatment Period). After a washout period of at least 13 days (or 5 half-lives of Compound A, whichever was longer), subjects were admitted to the clinic for baseline assessments (2nd Baseline Period) and then received a single dose of the same treatment (Compound A 100 mg or placebo) after consuming a high fat and high calorie meal over 30 minutes. Blood PK samples were collected at prespecified time points. Safety evaluations were also assessed. CSF was not collected for PD evaluation during the 2nd Treatment Period. A Follow Up Visit occurred on Day 10 of Treatment Period 2.
In Part C, there was 1 cohort of 8 healthy elderly subjects (65 to 85 years of age) randomly assigned to receive a single dose of Compound A 100 mg or placebo in a ratio of 6:2, respectively.
In Part D, 3 cohorts of healthy adult Japanese subjects were randomized in parallel. There were 7 subjects in each cohort and subjects were randomly assigned to receive single doses of Compound A (25, 100, or 400 mg) or placebo in a ratio of 6:1, respectively.
Blood samples for determination of plasma Compound A concentrations were collected from predose to 216 hours postdose. On Day 1, blood PK samples were collected at predose and postdose 0.5 (30 minutes), 1, 1.5, 2, 3, 4, 5, 6, 8, 12, and 18 hours. Thereafter, samples were collected on Day 2 (24 and 36 hours postdose), Day 3 (48 hours postdose), Day 4 (72 hours postdose), Day 5 (96 hours postdose), Day 6 (120 hours postdose), Day 7 (144 hours postdose), and Day 10 (216 hours postdose).
Blood samples for determination of plasma Compound A concentrations were collected from predose to 216 hours postdose. For all cohorts, blood PK samples were collected on Day 1 at predose and postdose at 0.5 (30 minutes), 1, 1.5, 2, 3, 4, 5, 6, 8, 10, 12, and 18 hours. […]

COc1ncc(C)c(-c2ccc3c(c2)[nH]c(=O)c2cnn([C@H]4CCOC4)c23)c1C [Compound A, (S)-7-(2-methoxy-3,5-dimethylpyridin-4-yl)-1-(tetrahydrofuran-3-yl)-1H-pyrazolo[4,3-c]quin olin-4(5H)-one]
Cmax (100 mg, Japanese Subjects (Part D), single oral 100 mg, read-out: Cmax GM (% CV)): 492 ng/mL | Vd/F (100 mg, Japanese Subjects (Part D), single oral 100 mg, read-out: Vz/F GM (% CV)): 240 L | half-life (100 mg, Japanese Subjects (Part D), single oral 100 mg, read-out: t1/2 Mean (SD) (converted)): 23.9 h | Tmax (100 mg, Japanese Subjects (Part D), single oral 100 mg, read-out: tmax Median): 2.52 h | AUC(0-inf) (100 mg, Non-Japanese Subjects (Parts A,B), single oral 100 mg, read-out: AUC(0-inf) GM): 15000 ng·h/mL | Cmax (100 mg, Non-Japanese Subjects (Parts A,B), single oral 100 mg, read-out: Cmax GM (% CV)): 373 ng/mL | Vd/F (100 mg, Non-Japanese Subjects (Parts A,B), single oral 100 mg, read-out: Vz/F GM (% CV)): 268 L | half-life (100 mg, Non-Japanese Subjects (Parts A,B), single oral 100 mg, read-out: t1/2 Mean (SD) (converted)): 28.6 h | Tmax (100 mg, Non-Japanese Subjects (Parts A,B), single oral 100 mg, read-out: tmax Median): 2.99 h | AUC(0-t) (100 mg, Part B 100 mg cohort, single oral 100 mg, Fasted, read-out: AUC (0-24 h) GM (% CV)): 6140 ng·h/mL | AUC(0-t) (100 mg, Part B 100 mg cohort, single oral 100 mg, Fasted, read-out: AUC (0-30 h) GM (% CV)): 7360 ng·h/mL | AUC(0-t) (100 mg, Part B 100 mg cohort, single oral 100 mg, Fasted, read-out: AUC (0-72 h) GM (% CV)): 12200 ng·h/mL | AUC(0-inf) (100 mg, Part B 100 mg cohort, single oral 100 mg, Fasted, read-out: AUC (0-inf) GM (% CV)): 14500 ng·h/mL | AUC(0-t) (100 mg, Part B 100 mg cohort, single oral 100 mg, Fasted, read-out: AUC (0-t) GM (% CV)): 14400 ng·h/mL | Cmax (100 mg, Part B 100 mg cohort, single oral 100 mg, Fasted, read-out: Cmax GM (%CV)): 371 ng/mL | Vd/F (100 mg, Part B 100 mg cohort, single oral 100 mg, Fasted, read-out: Vz/F GM (% CV)): 252 L | half-life (100 mg, Part B 100 mg cohort, single oral 100 mg, Fasted, read-out: t1/2 Mean (SD) (converted)): 25.7 h | Tmax (100 mg, Part B 100 mg cohort, single oral 100 mg, Fasted, read-out: tmax Median (Min, Max)): 2.99 h | AUC(0-t) (100 mg, Part B 100 mg cohort, single oral 100 mg, Fed (high-fat meal), read-out: AUC (0-24 h) GM (% CV)): 7610 ng·h/mL | AUC(0-t) (100 mg, Part B 100 mg cohort, single oral 100 mg, Fed (high-fat meal), read-out: AUC (0-30 h) GM (% CV)): 8980 ng·h/mL | AUC(0-t) (100 mg, Part B 100 mg cohort, single oral 100 mg, Fed (high-fat meal), read-out: AUC (0-72 h) GM (% CV)): 14500 ng·h/mL | AUC(0-inf) (100 mg, Part B 100 mg cohort, single oral 100 mg, Fed (high-fat meal), read-out: AUC (0-inf) GM (% CV)): 17300 ng·h/mL | AUC(0-t) (100 mg, Part B 100 mg cohort, single oral 100 mg, Fed (high-fat meal), read-out: AUC (0-t) GM (% CV)): 17100 ng·h/mL | Cmax (100 mg, Part B 100 mg cohort, single oral 100 mg, Fed (high-fat meal), read-out: Cmax GM (%CV)): 536 ng/mL | Vd/F (100 mg, Part B 100 mg cohort, single oral 100 mg, Fed (high-fat meal), read-out: Vz/F GM (% CV)): 212 L | half-life (100 mg, Part B 100 mg cohort, single oral 100 mg, Fed (high-fat meal), read-out: t1/2 Mean (SD) (converted)): 26 h | Tmax (100 mg, Part B 100 mg cohort, single oral 100 mg, Fed (high-fat meal), read-out: tmax Median (Min, Max)): 3.49 h | AUC(0-t) (100 mg, healthy adults (Parts A,B), single oral 100 mg, fasted, read-out: AUC(0-24 h) GM): 5730 ng·h/mL | AUC(0-t) (100 mg, healthy adults (Parts A,B), single oral 100 mg, fasted, read-out: AUC(0-30 h) GM): 6890 ng·h/mL | AUC(0-t) (100 mg, healthy adults (Parts A,B), single oral 100 mg, fasted, read-out: AUC(0-72 h) GM): 11900 ng·h/mL | AUC(0-inf) (100 mg, healthy adults (Parts A,B), single oral 100 mg, fasted, read-out: AUC(0-inf) GM): 15000 ng·h/mL | AUC(0-t) (100 mg, healthy adults (Parts A,B), single oral 100 mg, fasted, read-out: AUC(0-t) GM): 14800 ng·h/mL | Cmax (100 mg, healthy adults (Parts A,B), single oral 100 mg, fasted, read-out: Cmax GM): 373 ng/mL | Vd/F (100 mg, healthy adults (Parts A,B), single oral 100 mg, fasted, read-out: Vz/F GM): 268 L | half-life (100 mg, healthy adults (Parts A,B), single oral 100 mg, fasted, read-out: t1/2 Mean (converted)): 28.6 h | Tmax (100 mg, healthy adults (Parts A,B), single oral 100 mg, fasted, read-out: tmax Median): 2.99 h | AUC(0-inf) (100 mg, healthy elderly subjects (Part C), single oral 100 mg, read-out: AUC (0-inf) GM (% CV)): 21300 ng·h/mL | Cmax (100 mg, healthy elderly subjects (Part C), single oral 100 mg, read-out: Cmax GM (% CV)): 543 ng/mL | Vd/F (100 mg, healthy elderly subjects (Part C), single oral 100 mg, read-out: Vz/F GM (% CV)): 253 L | half-life (100 mg, healthy elderly subjects (Part C), single oral 100 mg, read-out: t1/2 Mean (SD) (converted)): 38.1 h | Tmax (100 mg, healthy elderly subjects (Part C), single oral 100 mg, read-out: tmax Median (Min, Max)): 2.6 h | AUC(0-t) (200 mg, healthy adults (Parts A,B), single oral 200 mg, fasted, read-out: AUC(0-24 h) GM): 7800 ng·h/mL | AUC(0-t) (200 mg, healthy adults (Parts A,B), single oral 200 mg, fasted, read-out: AUC(0-30 h) GM): 9440 ng·h/mL | AUC(0-t) (200 mg, healthy adults (Parts A,B), single oral 200 mg, fasted, read-out: AUC(0-72 h) GM): 16800 ng·h/mL | AUC(0-inf) (200 mg, healthy adults (Parts A,B), single oral 200 mg, fasted, read-out: AUC(0-inf) GM): 22400 ng·h/mL | AUC(0-t) (200 mg, healthy adults (Parts A,B), single oral 200 mg, fasted, read-out: AUC(0-t) GM): 22000 ng·h/mL | Cmax (200 mg, healthy adults (Parts A,B), single oral 200 mg, fasted, read-out: Cmax GM): 539 ng/mL | Vd/F (200 mg, healthy adults (Parts A,B), single oral 200 mg, fasted, read-out: Vz/F GM): 384 L | half-life (200 mg, healthy adults (Parts A,B), single oral 200 mg, fasted, read-out: t1/2 Mean (converted)): 30.9 h | Tmax (200 mg, healthy adults (Parts A,B), single oral 200 mg, fasted, read-out: tmax Median): 2 h | AUC(0-inf) (400 mg, Japanese Subjects (Part D), single oral 400 mg, read-out: AUC(0-inf) GM): 46500 ng·h/mL | Cmax (400 mg, Japanese Subjects (Part D), single oral 400 mg, read-out: Cmax GM (% CV)): 1180 ng/mL | Vd/F (400 mg, Japanese Subjects (Part D), single oral 400 mg, read-out: Vz/F GM (% CV)): 364 L | half-life (400 mg, Japanese Subjects (Part D), single oral 400 mg, read-out: t1/2 Mean (SD) (converted)): 30 h | Tmax (400 mg, Japanese Subjects (Part D), single oral 400 mg, read-out: tmax Median): 2.25 h
